Assay results reported in US5985273A, “Biological control of insects” (priority 1994, dated 1999).
≈ marks a conversion by molar mass, not a printed value. Starred links: 1 amine or outer side, 2 acyl side, 3 side chain; linkers in the order of their positions; H or OH if unused. Non-standard residues stand in square brackets, D forms with d. Residues, ends and D or L forms follow the SMILES beside them. *: point of attachment. Sta = CC(C)C[C@H](N)[C@@H](O)CC(=O)O; Isovaleryl = CC(C)CC(=O)*; Nle = CCCC[C@H](N)C(=O)O; CO = O=C([*:1])[*:2]

Experiments:
Lucilia cuprina larvae = test: Growth and survival of first instar sheep blowfly larvae on culture medium with inhibitor; assay type: in vivo; conditions: for Effect on larval growth, summary in words: Example 1, Table 1.2
[1] = test system: Bovicola ovis (Hartley strain); conditions: cited from earlier work
O. surinamensis larvae = test: Weight reduction of Oryzaephylus surinamensis larvae in treated flour; assay type: in vivo
Method: Insects were cultured in cleaned, ground and sieved wholemeal flour made from organic wheat. Inhibitors from bottles of pre-weighed material were dry-mixed with the flour and residual inhibitor rinsed from bottles with a small volume of water. Rinse water was added to the flour and the mixture re-ground. The impregnated flour was transferred to a 20 mL vial and mixed thoroughly by shaking and inverting.
Adults of T. castaneum were allowed to oviposit on flour, eggs were sifted from the flour and transferred one by one with a single hair to microwell tubes containing a small amount of flour. Each level of treatment was performed in triplicated using 32 wells/replicate. Assays were performed in triplicated. Cultures were incubated at 30° C. and 55% R H.
The bioassay for this insect was outlined for T. castaneum, except incubations were conducted at 32.5° C. and 70% R H. After 8 days the insects were sieved from the flour and weighed.

Ctenocephalides felis = test: Development of cat flea eggs in dried blood diets; assay type: in vivo; conditions: Day 16
Method: Blood was collected from the jugular vein of a five year old merino sheep that had not been treated with an ectoparasitic agent for 18 months. The blood was collected into a 100 ml plastic bottle containing 0.8 ml of heparin and was maintained at 4° C. Inhibitors were pre-weighed into sterile 5 ml plastic vials and 4.5 ml of blood added. The samples were mixed, placed at -70° C. for 24 hours, then freeze-dried. The freeze-dried samples were sieved through a stainless steel 63 micron sieve, and placed into sterile 5 ml plastic vials (0.15 g/per tube). Four flea eggs were placed into each vial, and a sheet of tissue paper fastened by an elastic band was fitted to the top of each vial. The vials were incubated at 25° C. and 70-80% R H for 6 days. Vermiculite was then added to each vial to provide a supporting medium for the fleas to pupate and the tubes incubated at 25° C. and 70-80% R H, for a further 10 days. Ten control vials and three vials of each treatment were tested.
At the conclusion of the incubation period the vials were placed at -20° C. for 24 hours to kill the fleas. The number of eggs hatched and the life-cycle state was recorded.

Teleogryllus commodus = test: Mortality of black field cricket nymphs on treated cabbage leaf disks; assay type: in vivo; conditions: after 7 days
Method: (i) Stock solutions of inhibitors and control solutions were prepared as aqueous solutions or suspensions as outlined in Table 6.1.
(ii) Mortality was assessed by commencing the study with 1st instar nymphs.
(iii) Cabbage leaf disks (5×8 mm diameter disks/treatment) were smeared with 100 μl of inhibitor or control stock solutions and allowed to dry. Disks were placed singly in 40 mm petri dishes, together with a moist cotton wool pas as water supply and a piece of fluted plastic for shelter.
(iv) Ten nymphs were placed on each disc and the dishes incubated at 25° C.
(v) Mortality was assessed daily and any dead individuals removed.

[2] = test system: Colorado potato beetle larvae; conditions: cited from earlier work
[3] = test system: Heliothis punctigens larvae; test: Growth and survival of cotton budworm larvae fed an artificial diet; assay type: in vivo; conditions: for % Alive / Average Laval Weight: 10 days; for % Alive: control 70.0; for Average Laval Weight: control 165.4
Method: 1. The Haricot beans were cooked in a microwave for 40 minutes. 2. Agar was added to the hot water and stirred on a hot plate until almost boiling. 3. The haricot beans, agar mix, yeast and wheat germ was blended in an electric mixer for 3 minutes. 4. When the temperature has dropped to 60°C., the acids were added and mixed with the media. […] Inhibitor solutions or an equal volume of water were placed into sterilized glass tubes at designated concentrations. The artificial media was added to each tube (1.5 ml) using a sterile 10 ml syringe. First instar Heliothis punctigens larvae (1 larvae per tube) were added to the glass tubes and the tubes were capped. The tubes were incubated for 10 days at 25° C. The larvae were killed by placing the glass tubes at -70° C. for 24 hours, and then individually weighed. Percentage inhibition was calculated by comparison to control larvae.

[4] = first instar larvae, tested at 1, 2, 5, 10 mM
[5] = Lucilia cuprina, first instar larvae, 2 mM
[6] = 192 h, 2.5 mM, 8 days, relative to untreated larvae, read-out: Percentage Growth Inhibition
[7] = 192 h, 5 mM, 8 days, relative to untreated larvae, read-out: Percentage Growth Inhibition
[8] = 192 h, 10 mM, 8 days, relative to untreated larvae, read-out: Percentage Growth Inhibition
[9] = Heliothis, 240 h, read-out: % Growth Inhibition

Compound: CC[C@H](C)[C@H](N)C(=O)N1CCC[C@H]1C(=O)N[C@H](C(=O)O)[C@@H](C)CC [Diprotin, H-Ile-Pro-Ile-OH]
- Effect on larval growth, summary in words (Lucilia cuprina larvae): ineffective
- Growth Inhibition (Lucilia cuprina larvae; [4]): No inhibition detected

Compound: CC(C)C[C@@H](N)[C@H](O)C(=O)N[C@H](C(=O)N[C@H](C(=O)N[C@@H](CC(=O)O)C(=O)O)C(C)C)C(C)C [Amastatin, ((2S,3R)-3-amino-2-hydroxy-5-methyl-hexanoyl)-Val-Val-Asp-OH]
- Effect on larval growth, summary in words (Lucilia cuprina larvae): effective growth inhibitors
- inhibition at 2000 µM (Lucilia cuprina larvae; [5]): 60%

Compound: CCOP(=S)(OCC)Oc1cc(C)nc(C(C)C)n1 [Diatinon]
- LC50 ([1]; Hartley strain lice): 5.31 µg/mL (≈ 17.4 µM)
- LC95 ([1]; Hartley strain lice): 19.7 µg/mL (≈ 64.7 µM)
- Resistance Factor ([1]; Hartley strain, (Singapore)): 1.4

Compound: Casein
- Percentage Growth Inhibition (O. surinamensis larvae; 10 mg/ml, 8 days): -5%
- Percentage Growth Inhibition (O. surinamensis larvae; 20 mg/ml, 8 days): 10%
- Percentage Growth Inhibition (O. surinamensis larvae; 40 mg/ml, 8 days): -2%

Compound: CCCC[C@@H](C=O)NC(=O)[C@H](CC(C)C)NC(=O)[C@H](CC(C)C)NC(C)=O [Calpain inhibitor I, N-Acetyl-Leu-Ley-norleucinal] (Ac-Leu-Leu-[Nle]-aldehyde)
- Growth Inhibition (Lucilia cuprina larvae; first instar larvae, 2 mM): 71%

Compound: tosyl-L-lysine chloromethyl ketone [TLCK]
- Effect on larval growth, summary in words (Lucilia cuprina larvae): killing the larvae
- Larval survival (Lucilia cuprina larvae; first instar larvae, 5 mM): All killed
- Larval survival (Lucilia cuprina larvae; first instar larvae, 10 mM): All killed

Compound: CC(C)CC(N)CS [L-leucinethiol, 2-amino-4-methyl-1-pentanethiol]
- Effect on larval growth, summary in words (Lucilia cuprina larvae): effective growth inhibitors
- inhibition at 1000 µM (Lucilia cuprina larvae; Lucilia cuprina, Table 2.2, 1.00 mM): 21.4%
- inhibition at 2000 µM (Lucilia cuprina larvae; Lucilia cuprina, Table 2.2, 2.00 mM): 73.1%
- inhibition at 2000 µM (Lucilia cuprina larvae; [5]): 47%
- Average Larval Weight (Lucilia cuprina larvae; Table 2.2, 1.00 mM, control 10.26): 8.06 10^-4 g
- Average Larval Weight (Lucilia cuprina larvae; Table 2.2, 2.00 mM, control 10.26): 2.76 10^-4 g
- % Growth Incubation (Lucilia cuprina larvae; Table 2.3, 1.0 mM): 67.2%
- Average Larval Weight (Lucilia cuprina larvae; Table 2.3, 1.0 mM, control 9.08): 2.98 10^-4 g
- % Growth Incubation (Lucilia cuprina larvae; Table 2.3, 2.0 mM): 86.6%
- Average Larval Weight (Lucilia cuprina larvae; Table 2.3, 2.0 mM, control 9.08): 1.22 10^-4 g
- Larval survival (Lucilia cuprina larvae; first instar larvae, 5 mM): All killed

Compound: tosyl-L-phenylalanine chloromethyl ketone [TPCK]
- Growth Inhibition (Lucilia cuprina larvae; [4]): No inhibition detected

Compound: Cl.NCCc1ccc(S(=O)(=O)F)cc1 [PEFABLOC, 4-(2-aminoethyl)-benzenesulfonylfluoride hydrochloride]
- Percentage of Fleas Progressing Through to Pupation (Ctenocephalides felis; 1.10 mg in 4.5 ml of blood): 0%
- Percentage of Fleas Progressing Through to Pupation (Ctenocephalides felis; 2.20 mg in 4.5 ml of blood): 0%
- Growth Inhibition (Lucilia cuprina larvae; first instar larvae, 10 mM): 72%
- Growth Inhibition (Lucilia cuprina larvae; first instar larvae, 50 mM): 92%
- Mortality (class) (Teleogryllus commodus; 2.5-10 mM): Medium (medium 21-40%)
- Percentage Growth Inhibition (O. surinamensis larvae; 2.5 mM, 8 days, relative to untreated larvae): 49%
- Percentage Growth Inhibition (O. surinamensis larvae; 5 mM, 8 days, relative to untreated larvae): 61%
- Percentage Growth Inhibition (O. surinamensis larvae; 10 mM, 8 days, relative to untreated larvae): 79%

Compound: CC(C)[C@H](NC(=O)[C@H](CCCNC(=N)N)NC(=O)N[C@@H](Cc1ccccc1)C(=O)O)C(=O)N[C@H](C=O)CCCNC(=N)N [Antipain] ({Phe-CO}-Arg-Val-Arg-aldehyde)
- inhibition at 2500 µM (Lucilia cuprina larvae; Lucilia cuprina, first instar larvae, 2.5 mM, unit inferred): 45.5%
- inhibition at 5000 µM (Lucilia cuprina larvae; Lucilia cuprina, first instar larvae, 5 mM, unit inferred): 63.2%
- Mortality (class) (Teleogryllus commodus; 2.5-10 mM): None (none/low, 10-20% mortality)
- inhibition at 2500 µM (O. surinamensis larvae; [6]): -10%
- inhibition at 5000 µM (O. surinamensis larvae; [7]): -2%
- inhibition at 10000 µM (O. surinamensis larvae; [8]): -2%

Compound: CC(C)C[C@H](NC(=O)[C@@H](O)[C@H](N)Cc1ccccc1)C(=O)O [Bestatin]
- Effect on larval growth, summary in words (Lucilia cuprina larvae): effective growth inhibitors
- inhibition at 5000 µM (Lucilia cuprina larvae; Lucilia cuprina, first instar larvae, 5 mM): 63%
- inhibition at 1250 µM (O. surinamensis larvae; 192 h, 1.25 mM, 8 days, relative to untreated larvae, read-out: Percentage Growth Inhibition): -5%
- inhibition at 2500 µM (O. surinamensis larvae; [6]): 2%
- inhibition at 5000 µM (O. surinamensis larvae; [7]): -4%
- Growth inhibition, summary in words (O. surinamensis larvae; text summary of Table 9.1): ineffective

Compound: CC(C)C[C@H](NC(=O)[C@H]1O[C@@H]1C(=O)O)C(=O)NCCCCN=C(N)N (relative stereo) [E64, L-trans-epoxy-succinyl-leucylamido-(4-guanidino-butane)]
- Plateau in mortality ([2]; 1000 μg/ml application level): 74-85%
- Threshold level for larval growth reduction ([2]; fed on potato leaves): 50 µg/mL
- Effect on larval growth, summary in words (Lucilia cuprina larvae): ineffective
- Growth Inhibition (Lucilia cuprina larvae; first instar larvae, tested at 1, 2, 5 mM): No inhibition detected

Compound: CC(C)C[C@H](N)[C@](O)(Cc1c[nH]cn1)C(=O)O [Leuhistin, (2R,3S)-3-amino-2-hydroxy-2-(lII-imidazole-4-methyl)-5-methylhexanoic acid]
- Effect on larval growth, summary in words (Lucilia cuprina larvae): effective growth inhibitors
- Growth Inhibition (Lucilia cuprina larvae; first instar larvae, 5 mM): 65%

Compound: CC(C)CC(=O)N[C@H](C(=O)N[C@H](C(=O)N[C@@H](CC(C)C)[C@@H](O)CC(=O)N[C@@H](C)C(=O)N[C@@H](CC(C)C)[C@@H](O)CC(=O)O)C(C)C)C(C)C [Pepstatin] (Isovaleryl-VV[Sta]A[Sta]-OH)
- Growth retardation ([2]; fed on potato leaves): only a small response
- Effect on larval growth, summary in words (Lucilia cuprina larvae): ineffectiveness
- Growth Inhibition (Lucilia cuprina larvae; first instar larvae, tested at 1, 2, 10 mM): No inhibition detected

Compound: O=BOB(O)OB(O)OB=O [Borax]
- Mortality (Teleogryllus commodus; 5-20 mM): 93%
- Mortality (class) (Teleogryllus commodus; 5-20 mM): High (high 41-100%)
- inhibition at 5000 µM (O. surinamensis larvae; [7]): -5%
- inhibition at 10000 µM (O. surinamensis larvae; [8]): 39%
- inhibition at 20000 µM (O. surinamensis larvae; 192 h, 20 mM, 8 days, relative to untreated larvae, read-out: Percentage Growth Inhibition): 68%

Compound: CC(=O)N[C@@H](CC(C)C)C(=O)N[C@@H](CC(C)C)C(=O)N[C@H](C=O)CCCNC(=N)N [Leupeptin, Ac-Leu-Leu-Arginyl.1/2H2 SO4 H2 O]
- Percentage of Fleas Progressing Through to Pupation (Ctenocephalides felis; 1.70 mg in 4.5 ml of blood): 0%
- Percentage of Fleas Progressing Through to Pupation (Ctenocephalides felis; 3.40 mg in 4.5 ml of blood): 0%
- Effect on larval growth, summary in words (Lucilia cuprina larvae): intermediate inhibition
- inhibition at 2000 µM (Lucilia cuprina larvae; [5]): 71%
- inhibition at 10000 µM (Lucilia cuprina larvae; Lucilia cuprina, first instar larvae, 10 mM): 80%
- % Alive ([3]; 2.5 mM): 16.6%
- Average Laval Weight ([3]; 2.5 mM): 16.6 mg
- % Alive ([3]; 5.0 mM): 33.3%
- Average Laval Weight ([3]; 5.0 mM): 17.0 mg
- inhibition at 2500 µM [3, 9]: 90%
- inhibition at 5000 µM [3, 9]: 89.7%

Compound: CC1(C)C(C=C(Cl)Cl)C1C(=O)OC(C#N)c1cccc(Oc2ccccc2)c1 (stereo not drawn) [Cypermethrin]
- LC95 ([1]; Hartley strain lice): 475 µg/mL (≈ 1140 µM)
